We go through one compound from publication PMC6150226, “Inhibition of Human Kallikrein 5 Protease by Triterpenoids from Natural Sources” (Molecules : A Journal of Synthetic Chemistry and Natural …, 2017).

The test system of data set [1] is recombinant human trypsin. Briefly: Trypsin enzymatic assay (Boc-V-P-R-AMC). Format: biochemical. The note with it: for IC50: 0.78-100 μM, linear interpolation. How it is done: (§1) KLK5, KLK7, trypsin, and chymotrypsin C activities were evaluated according to the following methods supplied by R & D Systems Inc. (Minneapolis, MN, USA). The enzyme activity-dependent increase in the relative fluorescent unit (RFU) was measured, and the percentage of inhibition was calculated based on the formula: (1 − (A − B)/(C − B)) × 100, where A = RFU of test samples with enzymes, B = basal RFU without enzymes, and C = RFU of vehicle controls with enzymes.
To measure the trypsin activity, enzymatic reaction was performed at room temperature in 100 mM NaH2PO4 buffer (pH 8.0) containing 0.25 μg/mL recombinant human trypsin (Wako Pure Chemical Industries), 100 μM of Boc-V-P-R-AMC Fluorogenic Peptide Substrate, and 1.1% DMSO at final concentrations. […] was preincubated with test samples for 5 min, followed by the addition of peptide substrate. After incubating for 1 min, RFU was measured at Ex 380 nm/Em 460 nm. Leupeptin hemisulfate (42.1 μM) was used as a positive control.

For data set [2], the system named is LL-37 production in normal human epidermal keratinocytes (NHEKs). It counts as cell-based.
The target in data set [3] is T1, recombinant human pro-chymotrypsin C activated by trypsin (Chymotrypsin C) (Homo sapiens, UniProt Q99895).
T1 construct: purchased R & D Systems Inc
T1 sequence (Q99895 30-268, other chains not shown): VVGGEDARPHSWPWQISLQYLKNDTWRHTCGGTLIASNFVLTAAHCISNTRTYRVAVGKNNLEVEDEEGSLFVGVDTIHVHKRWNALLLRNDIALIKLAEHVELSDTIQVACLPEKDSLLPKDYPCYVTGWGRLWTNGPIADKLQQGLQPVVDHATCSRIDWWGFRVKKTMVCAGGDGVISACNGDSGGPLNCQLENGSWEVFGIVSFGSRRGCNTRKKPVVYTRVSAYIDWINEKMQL
Briefly: Chymotrypsin C enzymatic assay (Suc-A-A-P-F-AMC). Format: biochemical. How it is done:
as §1, with “enzymes. […] Activated chymotrypsin C (final 34.7 nM) was preincubated with test samples for 5 min, followed by the addition of peptide substrate. After incubating for 60 min, RFU was measured at Ex 380 nm/Em 460 nm.” for “enzymes.”

For another data set, the target named is T2, recombinant human KLK5 (Homo sapiens, UniProt Q9Y337).
T2 construct: purchased R & D Systems Inc
T2 sequence (Q9Y337 23-293): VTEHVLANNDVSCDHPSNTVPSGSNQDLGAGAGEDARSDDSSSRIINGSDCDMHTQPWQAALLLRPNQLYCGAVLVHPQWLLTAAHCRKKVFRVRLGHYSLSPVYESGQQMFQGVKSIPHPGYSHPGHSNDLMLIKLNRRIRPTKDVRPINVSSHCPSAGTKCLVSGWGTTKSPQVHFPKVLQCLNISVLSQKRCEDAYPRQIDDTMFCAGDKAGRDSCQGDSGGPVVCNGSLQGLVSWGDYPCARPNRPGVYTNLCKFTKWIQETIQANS
Briefly: KLK5 enzymatic assay (Boc-V-P-R-AMC fluorogenic substrate). Format: biochemical.

In data set [4] the target is T3, recombinant human pro-KLK7 activated by thermolysin (Kallikrein 7) (Homo sapiens, UniProt P49862).
T3 construct: purchased R & D Systems Inc
T3 sequence (P49862 30-253): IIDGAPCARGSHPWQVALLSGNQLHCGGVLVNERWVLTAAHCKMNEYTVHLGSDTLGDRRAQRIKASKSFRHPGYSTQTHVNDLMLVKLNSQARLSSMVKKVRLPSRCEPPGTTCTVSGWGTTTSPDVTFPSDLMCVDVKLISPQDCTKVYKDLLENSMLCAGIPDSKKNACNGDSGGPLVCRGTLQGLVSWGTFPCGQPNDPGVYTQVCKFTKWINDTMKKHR
Briefly: KLK7 enzymatic assay (fluorogenic peptide substrate II). Format: biochemical.

Data set [5] is described as follows: Plasma pharmacokinetics of triterpenoids in rats after oral Jumihaidokuto (LC-MS/MS). The note with it: rat; for Cmax: male, Sprague-Dawley, plasma. Format: in vivo. How it is done: Male Sprague–Dawley rats were purchased from Charles River Laboratories (Yokohama, Japan). The plasma pharmacokinetic study was performed according to the “Guidelines for the Care and Use of Laboratory Animals” of Tsumura & Co. Ethical approval for experimental procedures was obtained from the Laboratory Animal Committee of Tsumura & Co. Jumihaidokuto (JHT, Lot No. 332031900) was supplied by Tsumura & Co. (Tokyo, Japan) in the form of a powdered extract. JHT prepared in distilled water was orally administered to 16-h fasted rats at 2 g/10 mL/kg (n = 3). […] Plasma was obtained by centrifugation at 1700 g for 15 min at 4 °C and stored at −80 °C until further processing. […] Twenty-five microliters of methanol, an equal volume of atropine (2 ng/mL; Wako Pure Chemical Industries) as internal standard, and 750 µL of methanol were added to 200 µL of plasma samples, followed by mixing and centrifugation (7000× g, 5 min). For the preparation of the calibration curve, the same volumes of various concentrations of working solution were used instead of methanol. The supernatant was dried at 40 °C under a stream of nitrogen gas. The dried residue was dissolved in 50–60 μL of the initial mobile phase used for liquid chromatography–mass spectrometry with a tandem mass spectrometry system (LC-MS/MS; API4000 or Triple Quad 6500; AB Sciex, Tokyo, Japan) and then a 10- or 20-μL portion was injected into the LC-MS/MS system for the quantification of triterpenoids.

A further data set relates to NHEKs. Briefly: Cell growth test (XTT-based cell viability assay). The note with it: ursolic acid 0.5 and 5 μM, tumulosic acid 1 and 10 μM; 24 h; with or without 10 μM cycloheximide. Set-up: species or system human.
Where [6] appears, read: 0.78-100 μM, linear interpolation.

Read-outs that look alike come from different tables or passages of the source.

`C=C(CC[C@@H](C(=O)O)[C@H]1[C@H](O)C[C@@]2(C)C3=C(CC[C@]12C)[C@@]1(C)CC[C@H](O)C(C)(C)[C@@H]1CC3)C(C)C` [Tumulosic acid]: the “Inhibition % at 100 μM, Trypsin” value in data set [1] (100 μM) was 73.2 ± 1.6%. Moreover, the IC50 in data set [1] (listed as Tumulosic Acid) is 45.3 µM; in data set [1] (listed as tumulosic acid) it was 10.5 µM; in data set [3] (setting [6]) it was more than 100 µM; on recombinant human KLK5 (dose-response experiment of Figure 2, read-out: IC50 anti-KLK5 activity), 19.3 µM; on recombinant human KLK5 (selectivity experiment of Table 2, 0.78-100 μM, linear interpolation, read-out: IC50 Kallikrein 5), 14.8 µM; in data set [4] (setting [6]), more than 100 µM. In data set [2], the “amount of LL-37 in NHEK lysates” value is “decreased”. In addition, the “Inhibition % at 100 μM, Chymotrypsin C” value in data set [3] (100 μM) is listed as 4.1 ± 5.2%. In addition, the inhibition at 100 µM turned out to be 4% in data set [3] (100 μM); 58.7 ± 0.2% on recombinant human KLK5 (100 μM, read-out: Inhibition % at 100 μM, Kallikrein 5); 19.5 ± 1.5% in data set [4]. For the same compound, on recombinant human KLK5 (10 μM test compound, KLK5 8.1 nM, substrate 100 μM, mean ± SEM of triplicate, read-out: Anti-KLK5 Activity % Inhibition), the inhibition at 10 µM came to 36 ± 1.9%. Besides, the Cmax worked out at 116 ng/mL in data set [5] (2 g/kg, single oral Jumihaidokuto 2 g/10 mL/kg) and 238 nM in data set [5] (single oral Jumihaidokuto 2 g/kg, converted from 116.1 ng/mL). Besides, the “time of Cmax” value in data set [5] (single oral Jumihaidokuto 2 g/10 mL/kg) is reported as 2 h. Further, the “cytotoxic effect on cell proliferation” value in the data set on NHEKs is “No cytotoxic effect”.
